Experimental data reported in US10556870B2, “Imidazole compounds as EAAT3 inhibitors” (Hoffmann-La Roche Inc., priority 2016, dated 2020).

How the values were obtained:
human EAAT3 = target: T1, human EAAT3 (Homo sapiens, UniProt P43005); experiment: FLIPR Membrane Potential (FMP) assay, antagonist potency at human EAAT3 with L-glutamate as agonist; type: cell-based; conditions: HEK-293 cells stably expressing human EAAT3; L-glutamate at 80% of maximum response; antagonist applied 15 min before agonist; Kb by Cheng-Prusoff equation
T1 construct: expressed in transfected cells
T1 sequence (P43005 1-524): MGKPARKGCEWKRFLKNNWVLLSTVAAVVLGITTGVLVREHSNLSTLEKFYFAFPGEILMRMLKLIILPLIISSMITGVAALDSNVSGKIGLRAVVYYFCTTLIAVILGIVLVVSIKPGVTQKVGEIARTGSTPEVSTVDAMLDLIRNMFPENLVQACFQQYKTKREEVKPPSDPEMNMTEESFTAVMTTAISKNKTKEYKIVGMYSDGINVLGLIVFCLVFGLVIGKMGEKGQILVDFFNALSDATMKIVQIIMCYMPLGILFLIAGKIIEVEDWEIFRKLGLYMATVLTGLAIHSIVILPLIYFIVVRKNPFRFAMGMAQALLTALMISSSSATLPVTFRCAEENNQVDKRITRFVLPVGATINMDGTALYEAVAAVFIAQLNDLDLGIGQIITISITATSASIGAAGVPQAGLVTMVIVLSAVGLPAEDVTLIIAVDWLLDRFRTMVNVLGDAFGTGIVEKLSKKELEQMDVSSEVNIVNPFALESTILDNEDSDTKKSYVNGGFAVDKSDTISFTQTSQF
Protocol: The FLIPR Membrane Potential (FMP) Assay
HEK-293 cells stably expressing human EAAT3 were seeded at 55 000 cells/well in growth medium (DMEM glutamate free (Invitrogen 11960-044), 1% Pen Strep (10 ml/l GIBCO BRL No 15140-023), 10% FCS non dialysed heat inactivated, 5 mg/l puromycin) in poly-D-lysine treated 96-well black microtiter plates with clear-bottom. After 24 h, the growth medium was removed and 100 μl/well of Krebs buffer (140 mM NaCl, 4.7 mM KCl, 2.5 mM CaCl2, 1.2 mM MgCl2, 11 mM HEPES, 10 mM D-glucose, pH=7.4) added. The cells were then loaded by adding 100 μl/well FMP assay dye (FLIPR Membrane Potential assay reagent, Molecular Devices). The 96-well plates were then incubated at 37° C. for 1 h. The depolarization of the cells will cause more dye to enter in the cells, where it will bind to intracellular proteins and lipids and cause an increase in the fluorescence signal. Antagonist potency at human EAAT3 was determined by using L-glutamate as agonist at a concentration which gives 80% of the maximum response. The antagonists were applied 15 min before the application of the agonist L-glutamate. The assays were performed at room temperature and measurements done by using a Fluorometric Imaging Plate Reader (FLIPR, Molecular Devices) and filter #2. Responses were measured as peak increase in fluorescence minus basal (i.e. fluorescence without addition of L-glutamate). Kb was determined using the Cheng-Prusoff equation Kb=IC50/[1+(A/EC50)], where IC50 is the concentration of the antagonist producing 50% inhibition, A is the concentration of the agonist against which the IC50 is being determined (at EC50) and EC50 is the concentration of the agonist producing […].

Structure (SMILES)	Kb (human EAAT3)	melting point
CC(C)n1cncc1-c1cc(C(=O)NC(C)(C)C)cc(-c2ccc(Cl)cc2)c1 [Example 3, N-tert-Butyl-3-(4-chlorophenyl)-5-(3-propan-2-yl-imidazol-4-yl)-benzamide]	0.14 µM	97.5 °C
Cn1cncc1-c1cc(C(=O)NC(C)(C)C)cc(-c2ccc(Cl)cc2)c1 [Example 4, N-tert-Butyl-3-(4-chlorophenyl)-5-(3-methyl-imidazol-4-yl)-benzamide]	0.29 µM	79.5 °C
Cn1cncc1-c1cc(C(=O)NC(C)(C)C)cc(-c2ccc(F)cc2)c1 [Example 6, N-tert-Butyl-3-(4-fluorophenyl)-5-(3-methyl-imidazol-4-yl)-benzamide]	0.27 µM	62 °C
CC(C)(C)NC(=O)c1cc(-c2ccc(Cl)cc2)cc(-c2cncn2C(C)(C)C)c1 [Example 7, N-tert-Butyl-3-(3-tert-butyl-imidazol-4-yl)-5-(4-chlorophenyl)-benzamide]	0.2 µM	92 °C
CCn1cncc1-c1cc(C(=O)NC(C)(C)C)cc(-c2ccc(Cl)cc2)c1 [Example 8, N-tert-Butyl-3-(4-chlorophenyl)-5-(3-ethyl-imidazol-4-yl)-benzamide]	0.19 µM	89 °C
CCn1cncc1-c1cc(C(=O)NC(C)(C)C)cc(-c2ccc(F)cc2)c1 [Example 9, N-tert-Butyl-3-(3-ethyl-imidazol-4-yl)-5-(4-fluorophenyl)-benzamide]	0.16 µM	79 °C
CC(C)(C)NC(=O)c1cc(-c2ccc(F)cc2)cc(-c2cncn2C(C)(C)C)c1 [Example 11, N-tert-Butyl-3-(3-tert-butyl-imidazol-4-yl)-5-(4-fluorophenyl)-benzamide]	0.21 µM	96 °C

Now from value to compound:

Kb (human EAAT3)	melting point	Structure (SMILES)
0.16 µM	85 °C	CC(C)n1cncc1-c1cc(C(=O)NC(C)(C)C)cc(-c2ccc(F)cc2)c1 [Example 1, N-tert-Butyl-3-(4-fluorophenyl)-5-(3-propan-2-yl-imidazol-4-yl)-benzamide]
0.27 µM	88 °C	CC(C)n1cncc1-c1cc(C(=O)NC(C)(C)C)cc(-c2ccc(C(F)(F)F)cc2)c1 [Example 2, N-tert-Butyl-3-(3-propan-2-yl-imidazol-4-yl)-5-[4-(trifluoromethyl)-phenyl]-benzamide]
0.36 µM	78.5 °C	Cn1cncc1-c1cc(C(=O)NC(C)(C)C)cc(-c2ccc(C(F)(F)F)cc2)c1 [Example 5, N-tert-Butyl-3-(3-methyl-imidazol-4-yl)-5-[4-(trifluoromethyl)-phenyl]-benzamide]
0.23 µM	87 °C	CCn1cncc1-c1cc(C(=O)NC(C)(C)C)cc(-c2ccc(C(F)(F)F)cc2)c1 [Example 10, N-tert-Butyl-3-(3-ethyl-imidazol-4-yl)-5-[4-(trifluoromethyl)-phenyl]-benzamide]
0.27 µM	87 °C	CC(C)(C)NC(=O)c1cc(-c2ccc(C(F)(F)F)cc2)cc(-c2cncn2C(C)(C)C)c1 [Example 12, N-tert-Butyl-3-(3-tert-butyl-imidazol-4-yl)-5-[4-(trifluoromethyl)-phenyl]-benzamide]
